How the values were obtained:
[1] = system: ovalbumin sensitised Brown Norway rat eosinophilia model; experiment: Ovalbumin sensitised Brown Norway rat eosinophilia model; type: in vivo; conditions: single 30 μg intra-tracheal dose, suspension in saline, 30 min prior to ovalbumin challenge
Description: Pharmacological activity in vivo was assessed in an ovalbumin sensitised Brown Norway rat eosinophilia model. This model is designed to mimic allergen induced lung eosinophilia, a major component of lung inflammation in asthma.

[2] = system: rat model of thymus involution; experiment: Rat model of thymus involution; type: in vivo; conditions: 3 daily IT doses of 100 μg
[3] = Pharmacokinetics after intra-tracheal dry powder dosing in the pig; type: in vivo; conditions: for AUC (0-inf): compound (I) AUC calculated with IV plasma half-life
Description: Serial blood samples were taken for up to 8 h following dosing.

[4] = Pharmacokinetics after intravenous and oral dosing in rats; conditions: rat, IV 0.1 mg/kg

reduction of thymus weight [2]: 78% | Cmax ([3]; Pig 1, 1 mg intra-tracheal dry powder blend in lactose): 0.277 ng/mL | AUC (0-inf) ([3]; Pig 1, 1 mg intra-tracheal dry powder): 0.455 ng·h/mL | Cmax ([3]; Pig 2, 1 mg intra-tracheal dry powder blend in lactose): 0.218 ng/mL | AUC (0-inf) ([3]; Pig 2, 1 mg intra-tracheal dry powder): 0.495 ng·h/mL | time after dosing up to which quantifiable in plasma ([3]; anaesthetised pigs, 1 mg intra-tracheal, LLOQ 10 pg/mL compound (I), 20 pg/mL fluticasone propionate): up to 8 hours | plasma clearance [4]: 45.2 mL/min/kg
Structure (SMILES): CCC(=O)O[C@]1(C(=O)SCF)[C@H](C)C[C@H]2[C@@H]3C[C@H](F)C4=CC(=O)C=C[C@]4(C)[C@@]3(F)[C@@H](O)C[C@@]21C [Fluticasone propionate, 6α, 9α-Difluoro-17α-(1-oxopropoxy)-11β-hydroxy-16α-methyl-3-oxo-androsta-1,4-diene-17β-carbothioic acid S-fluoromethyl ester, reference compound]
inhibition of lung eosinophilia [1]: 41%
